According to paper PMC8639922, “KSHV transactivator-derived small peptide traps coactivators to attenuate MYC and inhibits leukemia and lymphoma cell growth” (Communications Biology, 2021):
Square brackets hold non-standard residues; d marks the D form. Peptide text beside a SMILES is read from it. Orn = NCCC[C@H](N)C(=O)O; βAla = NCCC(=O)O

Assays:
Format in all cases: cell-based, human
BCBL-1 = experiment: Flow cytometry, apoptosis induction (Annexin V staining); conditions: BCBL-1, 24 h, AnnexinV+ 7AAD-
Description: (§1) Leukoreduction system chambers (LRS) from healthy donors were purchased from Vitalant. Peripheral blood mononuclear cells (PBMCs) were prepared by a standard Ficoll gradient method. PBMCs along with THP-1 and BCBL-1 cell lines (2 × 10^6 cells/ml, 0.2 ml 10% FBS/RPMI/DMEM per well of a 96-well plate) were treated with various doses (0–256 μM) of either VGN50 peptide or control mutant peptide for 24 h. Cell death, apoptosis, and proliferation were analyzed by flow cytometry (BD Acuri) after intracellular staining with anti-humanKi67-Alexa488 (Biolegend, 1:100) along with the isotype control antibody, annexin-V-FITC with 7-AAD staining (Biolegend) according to the manufacture’s protocol, Live/dead Fixable Red Dead Cell staining kit (Invitrogen) according to the manufacture’s protocol, or MTT assay. Peptides were commercially synthesized (GenScript) with >90% purity with TFA removal.
(§2) AnnexinV+ 7AAD- % = apoptosis % […]
(§3) S-Figure 3. Flow cytometry analyses
(§4) (a) Apoptosis (%) was determined as Annexi nV+ 7AAD- popul at i on gat ed i n r ed shown i n
(§5) representative FACS plots of BCBL-1 cel l s t r eat ed wi t h PBS or VGN50 at 32µM. […]

BC-1 = experiment: as above; conditions: BC-1, 24 h, AnnexinV+ 7AAD-
Description: as §1, §2, §3, §4, §5

[1] = tested on: MYC promoter and putative enhancer regions; experiment: CUT&RUN qPCR, H3K27Ac modification; design: key: enrichment normalized to spiked-in luciferase plasmid DNA control; conditions: spiked-in luciferase plasmid control
From the text: We next examined the molecular mechanism of MYC down-regulation by VGN50. We first utilized Cleavage under targets & release using nuclease (CUT&RUN)-sequencing to examine histone modifications that are known to be associated with enhancers in order to map putative MYC enhancer regions in PEL cells (Fig. 5a). Genome-wide CUT&RUN studies identified putative enhancer and promoter regulatory regions that are marked by H3K27Ac, H3K4me1, POLR2A (RNAPII), BRD4, and SMARCC1, a component of the SWI/SNF complex (Fig. 1b and 5a). The identified putative MYC enhancers were also in good agreement with previous ChIP Hi-C[53] and ChIP-seq data sets[54]. Specific primer pairs were then designed to amplify the respective enhancer regions and to examine regulation of coactivator complex recruitment by VGN50.
Fig. 5 A molecular mechanism of VGN50-mediated MYC-down-regulation. a Cleavage under targets & release using nuclease (CUT&RUN). CUT&RUN was performed with BCBL-1 and BC-1 with the indicated antibodies. Enrichment of active histone modifications, and occupancies of RNAPII and SWI/SNF components at the MYC genomic region are shown as peaks. One of the biological duplicate samples for the BCBL-1 cell line is presented. […] The MYC promoter, enhancer, and negative control regions used for qPCR analyses are indicated with shading. The positions of the MYC coding region, CASC11 coding region, and long non-coding RNA, PVT1, MIR1208 are shown in the panel. b VGN50 inhibits coactivator complex recruitment and c reduces H3K27Ac modification. qPCR is used to examine enrichment of DNA fragments in the presence of VGN50 or mutant peptide (24 μM). Peptide was applied 1 h prior to processing samples for CUT&RUN to replicate SLAM-seq experimental conditions. Non-specific IgG control was also included and enrichment with IgG control at each genomic region was set as 1 for b, and spiked-in luciferase plasmid DNA was used for additional internal control for c. d Formation of a larger protein complex with VGN50. Sucrose gradient sedimentation was used to monitor changes in protein complex formation in the presence of VGN50. The experiment flow chart is shown at the top of this panel. Fractions were collected from top (#1) to bottom (#23/24). Sample #24 without peptide is a smaller fraction of residual samples. Immunoblotting was performed on the odd number samples and the remaining fraction (#24 for no peptide sample) and probed with Flag-tagged SWI/SNF components (SMARCA4, SMARCC2, and SMARCB1). The position of each protein component based on molecular size is indicated. e KSHV K-Rta colocalizes with SWI/SNF components in reactivating BCBL-1 cells. TREx-BCBL-1 cells were triggered for reactivation by treatment with Dox and TPA for 28 h and stained with the indicated antibodies. Images were acquired with Keyence fluorescence microscopy. f A model for VGN50 molecular action. A model depicting the putative molecular action of VGN50 is presented. Coactivator complexes are dynamically assembled on enhancer and promoter regions via transcription factor binding. VGN50, an IDR fragment derived from an exceptionally potent viral transactivator, flexibly interacts with components of coactivators and traps them, thus reduces the available resources for cellular enhancers to activate MYC promoters.
CUT&RUN[72] was performed essentially by following the online protocol developed by Dr. Henikoff’s lab with a few modifications to fit our needs. Cells were washed with PBS and wash buffer [20 mM HEPES-KOH pH 7.5, 150 mM NaCl, 0.5 mM Spermidine (Sigma, S2626), and proteinase inhibitor (Roche)]. After removing the wash buffer, cells were captured on magnetic concanavalin A (ConA) beads (Polysciences, PA, USA) in the presence of CaCl2. […]

Q: For CC(C)C[C@H](NC(=O)CCNC(=O)[C@H](CCCNC(=N)N)NC(=O)[C@H](CCCNC(=N)N)NC(=O)[C@H](CCCNC(=N)N)NC(=O)[C@H](CCCN)NC(=O)[C@H](CCCNC(=N)N)NC(=O)[C@H](CCCNC(=N)N)NC(=O)[C@H](CCCCN)NC(=O)[C@H](CCCCN)NC(=O)[C@H](N)CCCNC(=N)N)C(=O)N[C@@H](CO)C(=O)N[C@@H](CO)C(=O)N[C@@H](C)C(=O)N[C@@H](C)C(=O)N[C@@H](C)C(=O)NCC(=O)N[C@@H](CC(C)C)C(=O)N[C@@H](Cc1ccc(O)cc1)C(=O)N[C@@H](CCC(N)=O)C(=O)N[C@@H](CC(C)C)C(=O)N[C@@H](CC(=O)O)C(=O)N[C@H](C(=O)O)[C@@H](C)O [Mt-P] (H-[dR]KKRR[Orn]RRR[βAla]LSSAAAGLYQLDT-OH; N-terminus and C-terminus assumed), which “AnnexinV+%” value (BCBL-1; replicate 1) is on record?
A: 3.66%

Q: What about the “AnnexinV+%” value (BCBL-1; replicate 2) of the same compound?
A: 5.9%

Q: And the “AnnexinV+%” value (BCBL-1; replicate 3)?
A: 4.52%

Q: What about the “AnnexinV+%” value (BC-1; replicate 1) of the same compound?
A: 4.73%

Q: And the “AnnexinV+%” value (BC-1; replicate 2)?
A: 4.24%

Q: And the “AnnexinV+%” value (BC-1; replicate 3)?
A: 4.01%

Q: What about the “H3K27Ac enrichment, CUT&RUN qPCR” value ([1]; region Cont., peptide 24 μM 1 h, replicate 1) of the same compound?
A: 1.234

Q: What about the “H3K27Ac enrichment, CUT&RUN qPCR” value ([1]; region Cont., peptide 24 μM 1 h, replicate 2) of the same compound?
A: 1.768

Q: What about the “H3K27Ac enrichment, CUT&RUN qPCR” value ([1]; region Cont., peptide 24 μM 1 h, replicate 3) of the same compound?
A: 1.486

Q: What about the “H3K27Ac enrichment, CUT&RUN qPCR” value ([1]; region E3, peptide 24 μM 1 h, replicate 1) of the same compound?
A: 2.706

Q: What about the “H3K27Ac enrichment, CUT&RUN qPCR” value ([1]; region E3, peptide 24 μM 1 h, replicate 2) of the same compound?
A: 2.727

Q: And the “H3K27Ac enrichment, CUT&RUN qPCR” value ([1]; region E3, peptide 24 μM 1 h, replicate 3)?
A: 2.006

Q: And the “H3K27Ac enrichment, CUT&RUN qPCR” value ([1]; region E4, peptide 24 μM 1 h, replicate 1)?
A: 25.383

Q: And the “H3K27Ac enrichment, CUT&RUN qPCR” value ([1]; region E4, peptide 24 μM 1 h, replicate 2)?
A: 24.888

Q: And the “H3K27Ac enrichment, CUT&RUN qPCR” value ([1]; region E4, peptide 24 μM 1 h, replicate 3)?
A: 21.090

Q: And the “H3K27Ac enrichment, CUT&RUN qPCR” value ([1]; region E5, peptide 24 μM 1 h, replicate 1)?
A: 8.581

Q: And the “H3K27Ac enrichment, CUT&RUN qPCR” value ([1]; region E5, peptide 24 μM 1 h, replicate 2)?
A: 8.863

Q: What about the “H3K27Ac enrichment, CUT&RUN qPCR” value ([1]; region E5, peptide 24 μM 1 h, replicate 3) of the same compound?
A: 8.913

Q: What about the “H3K27Ac enrichment, CUT&RUN qPCR” value ([1]; region P1, peptide 24 μM 1 h, replicate 1) of the same compound?
A: 6.685

Q: What about the “H3K27Ac enrichment, CUT&RUN qPCR” value ([1]; region P1, peptide 24 μM 1 h, replicate 2) of the same compound?
A: 5.570

Q: What about the “H3K27Ac enrichment, CUT&RUN qPCR” value ([1]; region P1, peptide 24 μM 1 h, replicate 3) of the same compound?
A: 7.094
